From US9073855B2, “BCL-2 selective apoptosis-inducing agents for the treatment of cancer and immune diseases” (AbbVie Inc., priority 2008, dated 2015)

Tests used:
GST-Bcl-XL = GST-Bcl-XL (Homo sapiens, UniProt Q07817); assay: TR-FRET binding assay, GST-Bcl-XL with F-Bak peptide probe; conditions: TR-FRET Binding Affinity
Procedure, shortened: (§1)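 Displacement of a fluorescein-labelled Bak peptide from the GST-tagged protein was followed by time-resolved FRET with a terbium anti-GST donor after 3 h incubation at room temperature. Inhibition constants were calculated with Wang's equation.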

GST-Bcl-2 = GST-Bcl-2 (Homo sapiens, UniProt P10415); assay: TR-FRET binding assay, GST-Bcl-2 with F-Bak peptide probe; conditions: for Ki: TR-FRET Binding Affinity
Procedure, shortened: as §1

[1] = TR-FRET, Bcl-XL Ki divided by Bcl-2 Ki
[2] = GST-Bcl-XL, F-Bak peptide probe
[3] = ratio of TR-FRET Ki values, Bcl-XL over Bcl-2

Chain of GST-Bcl-2 (P10415 whole entry): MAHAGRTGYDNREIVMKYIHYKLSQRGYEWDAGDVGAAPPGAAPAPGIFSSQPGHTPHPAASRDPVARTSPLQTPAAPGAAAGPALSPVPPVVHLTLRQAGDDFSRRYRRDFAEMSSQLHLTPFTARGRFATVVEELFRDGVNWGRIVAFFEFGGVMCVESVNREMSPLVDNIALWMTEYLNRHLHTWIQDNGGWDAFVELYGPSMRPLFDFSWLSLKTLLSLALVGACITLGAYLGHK
Chain of GST-Bcl-XL (Q07817 whole entry): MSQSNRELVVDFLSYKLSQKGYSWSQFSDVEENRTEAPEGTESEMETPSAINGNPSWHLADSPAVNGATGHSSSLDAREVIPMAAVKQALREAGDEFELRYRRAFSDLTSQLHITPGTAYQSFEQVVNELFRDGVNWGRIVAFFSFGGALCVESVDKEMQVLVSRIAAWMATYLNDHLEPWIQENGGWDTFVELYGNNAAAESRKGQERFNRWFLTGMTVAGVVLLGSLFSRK

| SMILES | Ki (GST-Bcl-XL) | Ki (GST-Bcl-2) | Binding selectivity ratio (Bcl-XL Ki/Bcl-2 Ki) (GST-Bcl-2; [1]) | Ki (GST-Bcl-XL; [2]) | Ki (GST-Bcl-2; GST-Bcl-2, F-Bak peptide probe) | Binding selectivity ratio (Bcl-XL Ki/Bcl-2 Ki) (GST-Bcl-2; [3]) |
| --- | --- | --- | --- | --- | --- | --- |
| CC1(C)CCC(CN2CCN(c3ccc(C(=O)NS(=O)(=O)c4ccc(OCC5COCCO5)c(Cl)c4)c(Oc4cccc5[nH]ncc45)c3)CC2)=C(c2ccc(Cl)cc2)C1 (stereo not shown) [Example 502, N-{[3-chloro-4-(1,4-dioxan-2-ylmethoxy)phenyl]sulfonyl}-4-(4-{[2-(4-chlorophenyl)-4,4-dimethylcyclohex-1-en-1-yl]methyl}piperazin-1-yl)-2-(1H-indazol-4-yloxy)benzamide] | 145 nM | 0.025 nM | 5754.1 | – | – | – |
| CC1(C)CCC(CN2CCN(c3ccc(C(=O)NS(=O)(=O)c4ccc(OCC5COCCO5)c([N+](=O)[O-])c4)c(Oc4cccc5[nH]ncc45)c3)CC2)=C(c2ccc(Cl)cc2)C1 (stereo not shown) [Example 447, 4-(4-{[2-(4-chlorophenyl)-4,4-dimethylcyclohex-1-en-1-yl]methyl}piperazin-1-yl)-N-{[4-(1,4-dioxan-2-ylmethoxy)-3-nitrophenyl]sulfonyl}-2-(1H-indazol-4-yloxy)benzamide] | 65.8 nM | 0.028 nM | – | – | – | – |
| CC1(C)CCC(CN2CCN(c3ccc(C(=O)NS(=O)(=O)c4ccc(NCC5CCOCC5)c([N+](=O)[O-])c4)c(Oc4ccc5[nH]ccc5c4)c3)CC2CO)=C(c2ccc(Cl)cc2)C1 (stereo not shown) [Example 236, 4-[4-{[2-(4-chlorophenyl)-4,4-dimethylcyclohex-1-en-1-yl]methyl}-3-(hydroxymethyl)piperazin-1-yl]-2-(1H-indol-5-yloxy)-N-({3-nitro-4-[(tetrahydro-2H-pyran-4-ylmethyl)amino]phenyl}sulfonyl)benzamide] | – | – | – | > 660 nM | 0.369 nM | – |
| O=C(NS(=O)(=O)c1ccc(NCc2cccs2)c([N+](=O)[O-])c1)c1ccc(N2CCN(Cc3ccccc3-c3ccc(Cl)cc3)CC2)cc1Oc1ccccc1 [Example 162, 4-{4-[(4′-chloro-1,1′-biphenyl-2-yl)methyl]piperazin-1-yl}-N-({3-nitro-4-[(thien-2-ylmethyl)amino]phenyl}sulfonyl)-2-phenoxybenzamide] | – | – | – | 167 nM | 1.35 nM | – |
| CC1(C)CCC(CN2CCN(c3ccc(C(=O)NS(=O)(=O)c4ccc(N[C@@H]5CCN(C(CF)CF)C5)c([N+](=O)[O-])c4)c(Oc4cccc5[nH]ncc45)c3)CC2)=C(c2ccc(Cl)cc2)C1 [Example 435, 4-(4-{[2-(4-chlorophenyl)-4,4-dimethylcyclohex-1-en-1-yl]methyl}piperazin-1-yl)-N-{[4-({(3R)-1-[2-fluoro-1-(fluoromethyl)ethyl]pyrrolidin-3-yl}amino)-3-nitrophenyl]sulfonyl}-2-(1H-indazol-4-yloxy)benzamide] | – | – | – | 32.9 nM | 0.017 nM | – |
| CC1(C)CCC(CN2CCN(c3ccc(C(=O)NS(=O)(=O)c4cnc(OC[C@H]5CC[C@H](C(N)=O)CC5)c(Cl)c4)c(Oc4cccc5[nH]ncc45)c3)CC2)=C(c2ccc(Cl)cc2)C1 [Example 483, N-({6-[(trans-4-carbamoylcyclohexyl)methoxy]-5-chloropyridin-3-yl}sulfonyl)-4-(4-{[2-(4-chlorophenyl)-4,4-dimethylcyclohex-1-en-1-yl]methyl}piperazin-1-yl)-2-(1H-indazol-4-yloxy)benzamide] | 5.63 nM | < 0.01 nM | >563.0 | – | – | – |
| CN1CCN(CCNc2ccc(S(=O)(=O)NC(=O)c3ccc(N4CCN(Cc5ccccc5-c5ccc(Cl)cc5)CC4)cc3Oc3ccccc3)cc2[N+](=O)[O-])CC1 [Example 85, 4-{4-[(4′-chloro-1,1′-biphenyl-2-yl)methyl]piperazin-1-yl}-N-[(4-{[2-(4-methylpiperazin-1-yl)ethyl]amino}-3-nitrophenyl)sulfonyl]-2-phenoxybenzamide] | – | – | – | 11.5 nM | 0.236 nM | – |
| CO[C@H]1CC[C@H](CNc2ccc(S(=O)(=O)NC(=O)c3ccc(N4CCN(CC5=C(c6ccc(Cl)cc6)CC(C)(C)CC5)CC4)cc3Oc3cccc4[nH]ncc34)cc2[N+](=O)[O-])CC1 [Example 446, Trans-4-(4-{[2-(4-chlorophenyl)-4,4-dimethylcyclohex-1-en-1-yl]methyl}piperazin-1-yl)-2-(1H-indazol-4-yloxy)-N-[(4-{[(4-methoxycyclohexyl)methyl]amino}-3-nitrophenyl)sulfonyl]benzamide] | 19.3 nM | 0.038 nM | 508.4 | – | – | – |
| O=C(NS(=O)(=O)c1ccc(NCCCN2CCOCC2)c([N+](=O)[O-])c1)c1ccc(N2CCN(Cc3ccccc3-c3ccc(Cl)cc3)CC2)cc1Oc1cccc2[nH]ccc12 [Example 58, 4-{4-[(4′-chloro-1,1′-biphenyl-2-yl)methyl]piperazin-1-yl}-2-(1H-indol-4-yloxy)-N-({4-[(3-morpholin-4-ylpropyl)amino]-3-nitrophenyl}sulfonyl)benzamide] | – | – | – | 288 nM | 1.08 nM | – |
| CC1(C)CCC(CN2CCN(c3ccc(C(=O)NS(=O)(=O)c4ccc(OCC5(F)CCOCC5)c([N+](=O)[O-])c4)c(Oc4cccc5[nH]nnc45)c3)CC2)=C(c2ccc(Cl)cc2)C1 [Example 519, 2-(1H-benzotriazol-4-yloxy)-4-(4-{[2-(4-chlorophenyl)-4,4-dimethylcyclohex-1-en-1-yl]methyl}piperazin-1-yl)-N-({4-[(4-fluorotetrahydro-2H-pyran-4-yl)methoxy]-3-nitrophenyl}sulfonyl)benzamide] | 311 nM | 0.012 nM | 25935.4 | – | – | – |
| CC1(C)CCC(CN2CCN(c3ccc(C(=O)NS(=O)(=O)c4ccc(NC5CCN(C6CC6)CC5)c([N+](=O)[O-])c4)c(Oc4cccc5[nH]cnc45)c3)CC2)=C(c2ccc(Cl)cc2)C1 [Example 451, 2-(1H-benzimidazol-4-yloxy)-4-(4-{[2-(4-chlorophenyl)-4,4-dimethylcyclohex-1-en-1-yl]methyl}piperazin-1-yl)-N-({4-[(1-cyclopropylpiperidin-4-yl)amino]-3-nitrophenyl}sulfonyl)benzamide] | 3.6 nM | < 0.01 nM | 359.9 | – | – | – |
| CC1(C)CCC(CN2CCN(c3ccc(C(=O)NS(=O)(=O)c4cnc(O[C@@H]5CCN(C(CF)CF)C5)c(Cl)c4)c(Oc4cccc5[nH]ncc45)c3)CC2)=C(c2ccc(Cl)cc2)C1 [Example 434, N-{[5-chloro-6-({(3R)-1-[2-fluoro-1-(fluoromethyl)ethyl]pyrrolidin-3-yl}oxy)pyridin-3-yl]sulfonyl}-4-(4-{[2-(4-chlorophenyl)-4,4-dimethylcyclohex-1-en-1-yl]methyl}piperazin-1-yl)-2-(1H-indazol-4-yloxy)benzamide] | – | – | – | 75.5 nM | 0.052 nM | 1459.4 |
| CC1(C)CCC(CN2CCN(c3ccc(C(=O)NS(=O)(=O)c4cnc(OCC5(O)CCC(F)(F)CC5)c(Cl)c4)c(Oc4cccc5[nH]ncc45)c3)CC2)=C(c2ccc(Cl)cc2)C1 [Example 490, N-({5-chloro-6-[(4,4-difluoro-1-hydroxycyclohexyl)methoxy]pyridin-3-yl}sulfonyl)-4-(4-{[2-(4-chlorophenyl)-4,4-dimethylcyclohex-1-en-1-yl]methyl}piperazin-1-yl)-2-(1H-indazol-4-yloxy)benzamide] | 106 nM | 1.14 nM | 92.7 | – | – | – |
| CC1(C)CCC(CN2CCN(c3ccc(C(=O)NS(=O)(=O)c4cnc(OCCN5CCOCC5)c(C#N)c4)c(Oc4cccc5[nH]ccc45)c3)CC2)=C(c2ccc(Cl)cc2)C1 [Example 392, 4-(4-{[2-(4-chlorophenyl)-4,4-dimethylcyclohex-1-en-1-yl]methyl}piperazin-1-yl)-N-{[5-cyano-6-(2-morpholin-4-ylethoxy)pyridin-3-yl]sulfonyl}-2-(1H-indol-4-yloxy)benzamide] | – | – | – | 122 nM | 0.38 nM | 320.2 |
| Cn1cncc1COc1ncc(S(=O)(=O)NC(=O)c2ccc(N3CCN(CC4=C(c5ccc(Cl)cc5)CC(C)(C)CC4)CC3)cc2Oc2cccc3[nH]ncc23)cc1Cl [Example 486, N-({5-chloro-6-[(1-methyl-1H-imidazol-5-yl)methoxy]pyridin-3-yl}sulfonyl)-4-(4-{[2-(4-chlorophenyl)-4,4-dimethylcyclohex-1-en-1-yl]methyl}piperazin-1-yl)-2-(1H-indazol-4-yloxy)benzamide] | 25.5 nM | 0.328 nM | 77.6 | – | – | – |
| O=C(NS(=O)(=O)c1ccc(NCC2CCOCC2)c([N+](=O)[O-])c1)c1ccc(N2CCN(Cc3cc(OCCN4CCOCC4)ccc3-c3ccc(Cl)cc3)CC2)cc1Oc1ccc2[nH]ccc2c1 [Example 127, 4-(4-{[4′-chloro-4-(2-morpholin-4-ylethoxy)-1,1′-biphenyl-2-yl]methyl}piperazin-1-yl)-2-(1H-indol-5-yloxy)-N-({3-nitro-4-[(tetrahydro-2H-pyran-4-ylmethyl)amino]phenyl}sulfonyl)benzamide] | – | – | – | > 660 nM | 0.459 nM | – |
| CC1(C)CCC(CN2CCN(c3ccc(C(=O)NS(=O)(=O)c4cnc(OCC5CCC(F)(F)CC5)c(Cl)c4)c(Oc4cccc5[nH]cnc45)c3)CC2)=C(c2ccc(Cl)cc2)C1 [Example 463, 2-(1H-benzimidazol-4-yloxy)-N-({5-chloro-6-[(4,4-difluorocyclohexyl)methoxy]pyridin-3-yl}sulfonyl)-4-(4-{[2-(4-chlorophenyl)-4,4-dimethylcyclohex-1-en-1-yl]methyl}piperazin-1-yl)benzamide] | 43.9 nM | 0.007 nM | 6042.9 | – | – | – |
| CN(C)CCNc1ccc(S(=O)(=O)NC(=O)c2ccc(N3CCN(Cc4ccccc4-c4ccc(Cl)cc4)CC3)cc2Oc2ccccc2)cc1[N+](=O)[O-] [Example 153, 4-{4-[(4′-chloro-1,1′-biphenyl-2-yl)methyl]piperazin-1-yl}-N-[(4-{[2-(dimethylamino)ethyl]amino}-3-nitrophenyl)sulfonyl]-2-phenoxybenzamide] | – | – | – | 93 nM | 0.265 nM | – |
